Laboratory results as given in article PMC12505902, “Inhibitors of trehalose-6-phosphate synthase activity in fungal pathogens compromise thermal tolerance pathways” (mBio, 2025).

Key:
Test in all cases: Fungicidal spot assay on compound-free YPD plates
Type in all cases: cell-based
C. albicans = details: 42°C exposure, then compound-free YPD plates
Procedure: (§1) We tested the effects of 4456dh on live cells by determining the minimal inhibitory concentration causing 80% growth reduction (MIC80). Wild-type (WT) C. albicans and C. auris cells were incubated with 4456dh in yeast-peptone-dextrose (YPD) medium at 42°C and 39°C, respectively (Fig. 4A). […] 4456dh inhibited the growth of C. auris with an MIC80 of 7 mM at 39°C (Fig. 4A). The MIC80 increased at 30°C to greater than 13 mM (Fig. S7A).
(§2) Fig 4 4456dh inhibits the growth of Candida and Cryptococcus species. Two-fold dose response assays were performed against (A) C. albicans at 42°C and C. auris at 39°C, (B) C. glabrata at 42°C, and (C) C. neoformans, C. deneoformans, and C. gattii at 37°C. 4456dh was administered at the concentrations indicated. […] Left: relative growth of treated samples was calculated by averaging technical triplicates and normalizing the OD600 of each treated well to the average OD600 of the untreated WT controls, after the absorbance due to the compound was subtracted. The MIC80 values, calculated based on the OD600 values, are indicated in the white text on each heat map. […]
(§3) 124 technical replicates. Growth, as determined by a reading of absorbance at 600 nm, was
(§4) 125 normalized to untreated controls and was corrected for the absorbance of 4456dh in the YPD […]
(§5) 129 overnight cultures was quantified by measuring the OD600 and corrected for the background
(§6) 130 absorbance of the medium. […]

C. auris = details: 30°C and 39°C exposure
Procedure: as §1, §2, §3, §4, §5, §6

C. glabrata = system: C. glabrata
Procedure: Fig 4 4456dh inhibits the growth of Candida and Cryptococcus species. […] 4456dh was administered at the concentrations indicated. Cultures were grown in YPD at the listed temperatures for 48 hours for Candida species and 72 hours for Cryptococcus species. Experimental temperatures reflect the temperatures at which the fungi experience heat stress. Left: relative growth of treated samples was calculated by averaging technical triplicates and normalizing the OD600 of each treated well to the average OD600 of the untreated WT controls, after the absorbance due to the compound was subtracted. The MIC80 values, calculated based on the OD600 values, are indicated in the white text on each heat map. […]
as §3, §4, §5
130 absorbance of the medium. Antifungal potency for 4456dh was assessed by minimum inhibitory […]
137 replicates. Growth, as determined by a reading of absorbance at 600 nm, was normalized to
138 untreated controls and was corrected for the absorbance of 4456dh in the YPD medium. […]
139 minimum inhibitory concentration causing 80% growth reduction, or MIC80, was determined based […]

Cn1cc(-c2csc(NC(=O)Cc3ccccn3)n2)cn1 [Compound 4456dh]
fungicidal activity (C. albicans): temperature-dependent fungicidal activity | fungicidal activity (C. auris): fungicidal activity of 4456dh on C. auris was also detected | fungicidal activity (C. glabrata; 30°C exposure): no MIC or fungicidal activity was detected | concentration from which fungicidal activity starts (C. glabrata; 42°C exposure): approximately 7.8 µM
